Reference: patent US4305940A, “Benzamides with local anaesthetic and antiarrhythmic activity, salts, and method of preparation thereof and pharmaceutical compositions therefrom” (B.B.R. Boehringer Biochemia Robin S.p.A., priority 1979, dated 1981)

Experiments:
[1] = in vivo; settings: rat, in vivo, ip; 5 days; hydrochloride salts; range in parentheses; read-out: DL50 i.p.
Excerpt: (§1) The behavior of the animals has then been followed for a period of five days. The DL50 has been determined according to the method of I. T. Litchfield and F. Wilcoxon, (J. Pharmacol. Exper. Ther., 96, 99, 1949). The compound numbers in Table II correspond to the numbers in Table I.

[2] = tested on: Swiss rats; test: in vivo; settings: lidocaine = 1
Excerpt: as §1

[3] = tested on: corneal reflux; test: Surface anaesthesia (corneal reflux, conjunctival sac); settings: for Surface anaesthesia DL50/CE50: analogous to therapeutic index, DL50 i.p.; for Surface anaesthesia CE50: concentration in percent achieving 50% of total responses, pH 7 saline, hydrochloride salts; for Surface anaesthesia activity with respect to lidocaine: lidocaine = 1
Method: (§2) The data reported hereinbelow relate in every instance to the hydrochloride salts of the individual compounds.
The surface anaesthesia has been determined in rabbits according to the method of M. R. A. Change and H. Lobstein (J. Pharmacol. Exper. Ther., 82, 203, 1944). The compounds dissolved in physiological saline solution of pH 7 were injected into the conjunctival sac and the corneal reflux was induced with the brush of Frey six times at intervals of five minutes for a total period of 40 minutes.

[4] = tested on: response to skin puncture; test: Anaesthesia by infiltration (subcutaneous, back puncture); type: in vivo, guinea pigs; settings: for Infiltration anaesthesia DL50/CE50: analogous to therapeutic index, DL50 i.p.; for Infiltration anaesthesia CE50: concentration in percent achieving 50% of total responses, hydrochloride salts; for Infiltration anaesthesia DL50/CE50 relative to lidocaine / Infiltration anaesthesia activity with respect to lidocaine: lidocaine = 1
Method: The anaesthesia by infiltration has been determined in guinea pigs according to the method of E. Bulbring and I. Wajda, (Journal of Pharmacol. Exper. Ther. 85, 78, 1945). In each experiment, four doses of the substance in 0.25 cc of physiological saline solution is injected subcutaneously on the back after removal of hair. After five minutes, each animal is punctured six times at intervals of […].
The test was repeated every five minutes for a period of 30 minutes. The extent of anaesthesia by infiltration was measured quantitatively by determining the sum of the instances in which the animal remained immobile during the thirty minute period on 36 possible blinks.

[5] = tested on: reflux of contraction of the lower limbs (lumbar plexus); test: Anaesthesia by conduction (lumbar plexus); type: in vivo, frogs; settings: for Conduction anaesthesia DL50/t' / Conduction anaesthesia 1/t'max. (c = 1%) with respect to lidocaine: c = 1%; for Conduction anaesthesia DL50/t': DL50 i.p.; for Conduction anaesthesia 1/t'max. (c = 1%) with respect to lidocaine / Conduction anaesthesia DL50/t' relative to lidocaine: lidocaine = 1
Excerpt: Anaesthesia by conduction has been determined on frogs according to the method of E. Bulbring and I. Wajda (Journal Pharmacol. Exper. Ther., 85, 78, 1945). The compounds dissolved in physiological saline solution are introduced into the cavity obtained by a transversal incision in the abdomen and separating the viscera in order to expose the lumbar plexus. The period of time necessary to eliminate the reflux of contraction of the lower limbs stimulated by immersion of both posterior legs into hydrochloric acid of increasing concentration between 0.05-0.1-0.2 N for a period not in excess of ten seconds, at intervals of one minute is determined. The extent of anaesthesia of conduction has been determined by measuring the period of time required for each compound in three different concentrations, 0.2%-0.5%-1.0% in order to abolish the reflex of contraction with the concentration of hydrochloric acid indicated hereinabove.

[6] = tested on: aconitine-induced ventricular arrhythmia; test: Anti-arrhythmic activity, aconitine infusion; type: in vivo, Wistar rats; settings: for Aconitine i.v. necessary to induce ventricular arrhythmia: 3 min before aconitine 10 mcg/kg/min
Method: as §2
This determination has been made in Wistar rats, anaesthetized with ethylurethane, (1 g/kg i.p.), according to the method of B. Vargaftig and J. L. Coigner (European Journal Pharmacology, 6, 49, 1969). The compounds dissolved in physiological saline solution, are injected intravenously three minutes prior to the infusion of aconitine, (10 mcg/kg/min.). The extent of anti-arrhythmic activity is determined quantitatively by determining the amount of aconitine necessary to induce ventricular arrhythmia.

SMILES | LD50 at 120 h [1] [mg/kg] | DL50 i.p. relative to lidocaine [2] | Surface anaesthesia DL50/CE50 [3] | Surface anaesthesia CE50 [3] [%] | Surface anaesthesia activity with respect to lidocaine [3] | Infiltration anaesthesia DL50/CE50 [4] | Infiltration anaesthesia CE50 [4] [%] | Infiltration anaesthesia DL50/CE50 relative to lidocaine [4] | Infiltration anaesthesia activity with respect to lidocaine [4] | Conduction anaesthesia DL50/t' [5] | Conduction anaesthesia 1/t'max. (c = 1%) with respect to lidocaine [5] | Conduction anaesthesia DL50/t' relative to lidocaine [5] | Aconitine i.v. necessary to induce ventricular arrhythmia ([6]; 0.6 mg/kg i.v.) [µg/kg] | Aconitine i.v. necessary to induce ventricular arrhythmia ([6]; 1.0 mg/kg i.v.) [µg/kg] | Aconitine i.v. necessary to induce ventricular arrhythmia ([6]; 3.0 mg/kg i.v.) [µg/kg] | Anti-arrhythmic activity compared with lidocaine ([6]; times more active than lidocaine) | Anti-arrhythmic activity compared with quinidine ([6]; times more active than quinidine) | Aconitine i.v. necessary to induce ventricular arrhythmia ([6]; 6.0 mg/kg i.v.) [µg/kg]
CCN(CC)Cc1ccccc1C(=O)Nc1c(C)cccc1C [Compound 1, 2,6-Dimethylanilide of 2-diethylaminomethylbenzoic acid] | 17.2 | 0.12 | 34 | 0.50 | 4.60 | 69 | 0.25 | 0.36 | 3.00 | 6 | 3.6 | 0.46 | 50 ± 5 | 67 ± 8 | 69 ± 8 | at least twenty times more active than lidocaine | at least ten times more active than quinidine | –
CCN(CC)Cc1cccc(C(=O)Nc2c(C)cccc2C)c1 [Compound 2] | 67 | 0.47 | 163 | 0.41 | 5.60 | 291 | 0.23 | 1.54 | 3.26 | 67 | 11.1 | 5.15 | – | 43 ± 8 | 77 ± 9 | – | – | 82 ± 9
Cc1cccc(C)c1NC(=O)c1ccccc1CN1CCCC1 [Compound 4] | 55 | 0.39 | 30 | 1.85 | 1.24 | 162 | 0.34 | 0.86 | 2.20 | 55 | 11.1 | 4.23 | – | – | – | – | – | –
Cc1cccc(C)c1NC(=O)c1cccc(CN2CCCC2)c1 [Compound 5] | 225 | 1.58 | 9 | 24.12 | 0.09 | 28 | 8.01 | 0.15 | 0.09 | 225 | 11.1 | 17.31 | – | – | – | – | – | –
Cc1cccc(C)c1NC(=O)c1ccc(CN2CCCC2)cc1 [Compound 6] | 215 | 1.51 | 13 | 16.03 | 0.14 | 48 | 4.50 | 0.25 | 0.16 | 107 | 5.5 | 8.31 | – | – | – | – | – | –
Cc1cccc(C)c1NC(=O)c1ccccc1CN1CCCCC1 [Compound 7] | 87.1 | 0.61 | 290 | 0.30 | 7.66 | 414 | 0.21 | 2.19 | 3.57 | 87 | 11.1 | 6.69 | – | – | – | – | – | –
